Experimental data taken from ChEMBL document CHEMBL1201862, “PubChem BioAssay data set” (2004).
Calls of active or inactive are those of the source.

Assays:
Ephrin type-A receptor 4 = Ephrin type-A receptor 4 (Mus musculus, UniProt Q03137); test: EphA4 ligand-binding antagonists – biochemical, colorimetric, mouse EphA4, primary screen (AID 689); assay type: functional
Cytochrome P450 3A4 [1] = molecular target: T1, Cytochrome P450 3A4 (Homo sapiens, UniProt P08684)
Cytochrome P450 2C19 = Cytochrome P450 2C19 (Homo sapiens, UniProt P33261); test: Cytochrome panel assay with activity outcomes. Panel member name: p450-cyp2c19 Compounds with AC50 equal or less than 10 uM are considered active; assay type: functional; details: read-out: AC50
Nonstructural protein 1 = Nonstructural protein 1 (Influenza A virus, UniProt Q194T2); assay type: functional, Influenza A virus (A/California/07/2009(H1N1))
[2] = molecular target: Protein-tyrosine kinase 2-beta (Homo sapiens, UniProt Q14289);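 note: potency of inhibitors of PYK2 kinase phosphorylation of poly-GT substrate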
[3] = Potency on glucagon-like peptide 1 release, dose-response in NCI-H716 cell line, half maximal inhibitory concentration (AID 1117344); assay type: functional, cell-based
Galanin receptor type 3 = molecular target: T2, Galanin receptor type 3 (Homo sapiens, UniProt O60755); test: Fluorescence-based cell-based primary high throughput dose response assay to identify antagonists of the Galanin Receptor 3 (GalR3).; assay type: functional
T2 sequence (O60755 whole entry): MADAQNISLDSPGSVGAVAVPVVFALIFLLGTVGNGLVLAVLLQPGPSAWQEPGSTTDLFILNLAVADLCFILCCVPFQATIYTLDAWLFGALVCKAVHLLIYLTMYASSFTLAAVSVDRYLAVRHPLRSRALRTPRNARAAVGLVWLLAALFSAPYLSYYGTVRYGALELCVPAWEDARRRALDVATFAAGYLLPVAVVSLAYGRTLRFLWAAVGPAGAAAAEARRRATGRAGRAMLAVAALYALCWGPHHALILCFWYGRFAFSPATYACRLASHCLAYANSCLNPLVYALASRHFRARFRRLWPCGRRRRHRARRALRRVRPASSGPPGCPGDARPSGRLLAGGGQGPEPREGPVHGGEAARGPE

[4] = glucagon-like peptide-1 release potency in STC-1, concentration-response, half-maximal inhibitory concentration in the STC-1 line (AID 1117345); assay type: functional, cell-based
cells [5] = assay type: functional, cell-based; details: HEK-CNG
[6] = molecular target: Voltage-dependent T-type calcium channel subunit alpha-1H (Homo sapiens, UniProt O95180); assay type: functional;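 note: channel activity triggered by adding a high calcium stimulation buffer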
Vero = test: mammalian cell viability reduction – secondary assay, cytotoxicity control for West Nile virus antiviral project, dose response (AID 1650); assay type: functional; details: Chlorocebus sabaeus
[7] = viability of uninfected HEp-2 cells – cell-based, HTS, cytotoxicity control for RSV inhibitor project, dose response (AID 2410); assay type: functional; details: human respiratory syncytial virus
Melanocortin receptor 4 = Melanocortin receptor 4 (Homo sapiens, UniProt P32245); test: inhibitors of MC4R cAMP signaling – cell-based, TR-FRET, biased antagonists, dose response (AID 602298); assay type: functional;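 note: antagonist potency against agonist-stimulated cAMP production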
cells [8] = test: cells
[9] = cAMP pathway inhibition in counterscreen cell line – TR-FRET cAMP detection, counter-screen for MC4R biased antagonist project, dose response (AID 602305); assay type: functional, cell-based;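 note: U2OS cells stimulated with forskolin near its EC80 as the cAMP inducer; potency is for inhibition of forskolin-stimulated cAMP signaling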
[10] = molecular target: Lytic switch protein BZLF1 (Epstein-Barr virus (strain B95-8) (HHV-4) (Human herpesvirus 4), UniProt P03206); test: inhibition of BZLF1 ZTA DNA binding – biochemical, fluorescence polarization, Epstein-Barr virus, 1536-well, counter-screen for EBNA-1 inhibitor project, dose response (AID 2377); set-up: species or system human gammaherpesvirus 4;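 note: fluorescence polarization of Cy5-labelled ZRE DNA probe bound by purified Zta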
[11] = molecular target: Epstein-Barr nuclear antigen 1 (Epstein-Barr virus (strain B95-8) (HHV-4) (Human herpesvirus 4), UniProt P03211); test: inhibition of EBV nuclear antigen 1 DNA binding – biochemical, fluorescence polarization, 1536-well, dose response (AID 2381); set-up: species or system human gammaherpesvirus 4;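 note: fluorescence polarization of a Cy5 DNA probe bound by EBNA-1 protein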
Cytochrome P450 3A4 [12] = molecular target: T1, Cytochrome P450 3A4; details: Potency
[13] = molecular target: 5-hydroxytryptamine receptor 1A (Homo sapiens, UniProt P08908); assay type: functional
[14] = molecular target: Mitogen-activated protein kinase 10 (Homo sapiens, UniProt P53779); test: Dose response biochemical screening assay for inhibitors of c-Jun N-Terminal Kinase 3 (JNK3). [Related pubchem assays: 746 ]
[15] = viability inhibitors of stage V gametocytes – luminescence, dose response (AID 1117278); assay type: functional, cell-based;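 note: gametocytes exposed to compound for 24 hours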
[16] = viability loss in human Jurkat cells – cell-based, luminescence, cytotoxicity control for P. falciparum gametocyte viability project, dose response (AID 1117277); assay type: functional;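 note: potency reflects loss of cellular ATP meaning fewer viable cells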

T1 sequence (P08684 whole entry): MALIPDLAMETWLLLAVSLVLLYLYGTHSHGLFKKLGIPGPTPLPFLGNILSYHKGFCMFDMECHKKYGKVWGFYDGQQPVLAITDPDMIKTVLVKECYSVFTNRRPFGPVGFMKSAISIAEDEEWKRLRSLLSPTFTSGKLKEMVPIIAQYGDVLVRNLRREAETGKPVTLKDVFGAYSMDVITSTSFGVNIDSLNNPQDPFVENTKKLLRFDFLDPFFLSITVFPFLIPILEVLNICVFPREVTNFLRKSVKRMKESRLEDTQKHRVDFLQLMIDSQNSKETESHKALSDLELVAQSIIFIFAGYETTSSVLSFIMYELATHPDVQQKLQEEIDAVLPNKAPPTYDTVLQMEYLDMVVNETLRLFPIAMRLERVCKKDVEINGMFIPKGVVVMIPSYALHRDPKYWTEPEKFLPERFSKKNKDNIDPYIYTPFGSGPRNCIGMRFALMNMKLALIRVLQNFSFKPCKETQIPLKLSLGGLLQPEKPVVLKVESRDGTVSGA
Chain of Ephrin type-A receptor 4 (Q03137 whole entry): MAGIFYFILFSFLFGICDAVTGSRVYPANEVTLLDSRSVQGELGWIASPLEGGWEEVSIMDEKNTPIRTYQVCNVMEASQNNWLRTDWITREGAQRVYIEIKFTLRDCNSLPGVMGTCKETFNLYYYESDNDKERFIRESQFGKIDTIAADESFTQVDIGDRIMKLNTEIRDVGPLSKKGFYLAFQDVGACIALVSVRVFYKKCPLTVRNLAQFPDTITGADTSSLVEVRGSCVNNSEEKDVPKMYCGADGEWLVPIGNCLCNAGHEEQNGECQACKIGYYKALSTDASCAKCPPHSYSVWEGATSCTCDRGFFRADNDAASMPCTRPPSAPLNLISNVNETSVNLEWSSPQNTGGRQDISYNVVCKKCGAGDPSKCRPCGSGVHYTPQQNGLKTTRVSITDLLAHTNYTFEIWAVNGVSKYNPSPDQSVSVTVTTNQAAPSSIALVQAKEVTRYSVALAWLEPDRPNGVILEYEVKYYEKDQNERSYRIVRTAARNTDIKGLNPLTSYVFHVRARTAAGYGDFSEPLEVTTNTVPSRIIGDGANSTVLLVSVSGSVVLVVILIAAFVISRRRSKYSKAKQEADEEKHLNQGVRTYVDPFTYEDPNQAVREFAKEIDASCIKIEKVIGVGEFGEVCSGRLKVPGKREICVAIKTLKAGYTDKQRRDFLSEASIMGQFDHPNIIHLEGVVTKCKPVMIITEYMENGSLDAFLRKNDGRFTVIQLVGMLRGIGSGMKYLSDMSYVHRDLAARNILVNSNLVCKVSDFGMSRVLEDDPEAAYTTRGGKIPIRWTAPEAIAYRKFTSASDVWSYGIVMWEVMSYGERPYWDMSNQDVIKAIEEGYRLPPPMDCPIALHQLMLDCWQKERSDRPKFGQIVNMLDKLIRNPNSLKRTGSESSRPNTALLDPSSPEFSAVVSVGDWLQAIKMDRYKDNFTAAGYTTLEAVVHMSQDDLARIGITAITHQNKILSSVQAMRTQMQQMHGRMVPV
Chain of Epstein-Barr nuclear antigen 1 (P03211 whole entry): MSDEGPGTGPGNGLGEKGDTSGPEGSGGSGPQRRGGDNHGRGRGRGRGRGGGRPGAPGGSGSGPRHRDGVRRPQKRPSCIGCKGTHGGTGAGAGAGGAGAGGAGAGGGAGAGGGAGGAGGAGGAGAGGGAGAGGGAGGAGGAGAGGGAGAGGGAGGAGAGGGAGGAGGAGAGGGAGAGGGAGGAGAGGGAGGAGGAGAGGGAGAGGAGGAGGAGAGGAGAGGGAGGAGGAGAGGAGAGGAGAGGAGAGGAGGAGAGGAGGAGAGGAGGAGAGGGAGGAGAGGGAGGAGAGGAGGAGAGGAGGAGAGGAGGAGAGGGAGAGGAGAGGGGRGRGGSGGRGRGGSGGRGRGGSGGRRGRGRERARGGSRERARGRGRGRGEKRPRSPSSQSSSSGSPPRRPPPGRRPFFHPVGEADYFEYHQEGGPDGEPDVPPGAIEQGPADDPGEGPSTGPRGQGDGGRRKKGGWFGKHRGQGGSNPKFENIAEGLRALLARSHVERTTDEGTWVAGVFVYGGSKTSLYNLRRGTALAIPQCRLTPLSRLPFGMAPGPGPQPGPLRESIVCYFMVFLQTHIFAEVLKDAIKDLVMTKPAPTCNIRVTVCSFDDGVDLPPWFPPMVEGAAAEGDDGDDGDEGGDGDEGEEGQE
Chain of 5-hydroxytryptamine receptor 1A (P08908 whole entry): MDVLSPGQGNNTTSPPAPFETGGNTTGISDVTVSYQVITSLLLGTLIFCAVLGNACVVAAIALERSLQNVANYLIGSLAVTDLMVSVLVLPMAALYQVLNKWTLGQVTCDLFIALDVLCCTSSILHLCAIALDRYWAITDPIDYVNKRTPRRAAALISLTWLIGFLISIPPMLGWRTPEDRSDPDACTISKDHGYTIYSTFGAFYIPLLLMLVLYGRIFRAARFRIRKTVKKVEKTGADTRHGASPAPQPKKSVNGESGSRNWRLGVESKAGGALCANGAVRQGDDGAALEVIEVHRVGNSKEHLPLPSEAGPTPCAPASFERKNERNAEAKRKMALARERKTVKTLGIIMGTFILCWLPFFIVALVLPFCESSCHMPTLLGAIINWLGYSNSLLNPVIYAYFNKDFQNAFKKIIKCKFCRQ
Chain of Lytic switch protein BZLF1 (P03206 whole entry): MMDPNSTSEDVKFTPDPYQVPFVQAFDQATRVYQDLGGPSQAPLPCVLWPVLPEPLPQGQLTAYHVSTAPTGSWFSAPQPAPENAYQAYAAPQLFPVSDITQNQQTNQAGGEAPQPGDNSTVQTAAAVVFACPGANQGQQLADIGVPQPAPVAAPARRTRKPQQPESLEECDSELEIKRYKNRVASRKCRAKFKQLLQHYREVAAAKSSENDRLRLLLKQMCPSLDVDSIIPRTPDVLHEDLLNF
Chain of Melanocortin receptor 4 (P32245 whole entry): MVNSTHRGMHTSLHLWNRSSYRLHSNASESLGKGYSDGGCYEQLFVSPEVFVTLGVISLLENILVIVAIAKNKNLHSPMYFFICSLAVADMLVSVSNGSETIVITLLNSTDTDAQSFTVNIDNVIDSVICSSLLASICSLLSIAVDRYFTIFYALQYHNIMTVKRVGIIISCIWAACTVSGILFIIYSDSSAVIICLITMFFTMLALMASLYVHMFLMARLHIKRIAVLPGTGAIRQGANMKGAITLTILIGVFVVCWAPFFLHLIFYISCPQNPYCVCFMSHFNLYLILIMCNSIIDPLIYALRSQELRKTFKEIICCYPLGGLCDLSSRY
Chain of Nonstructural protein 1 (Q194T2 whole entry): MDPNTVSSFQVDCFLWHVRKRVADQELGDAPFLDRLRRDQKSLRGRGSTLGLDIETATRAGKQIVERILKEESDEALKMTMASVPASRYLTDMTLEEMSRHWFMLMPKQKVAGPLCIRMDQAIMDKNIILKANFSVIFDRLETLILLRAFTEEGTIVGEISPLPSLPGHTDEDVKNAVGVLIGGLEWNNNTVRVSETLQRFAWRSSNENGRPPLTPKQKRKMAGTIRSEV
Chain of Protein-tyrosine kinase 2-beta (Q14289 whole entry): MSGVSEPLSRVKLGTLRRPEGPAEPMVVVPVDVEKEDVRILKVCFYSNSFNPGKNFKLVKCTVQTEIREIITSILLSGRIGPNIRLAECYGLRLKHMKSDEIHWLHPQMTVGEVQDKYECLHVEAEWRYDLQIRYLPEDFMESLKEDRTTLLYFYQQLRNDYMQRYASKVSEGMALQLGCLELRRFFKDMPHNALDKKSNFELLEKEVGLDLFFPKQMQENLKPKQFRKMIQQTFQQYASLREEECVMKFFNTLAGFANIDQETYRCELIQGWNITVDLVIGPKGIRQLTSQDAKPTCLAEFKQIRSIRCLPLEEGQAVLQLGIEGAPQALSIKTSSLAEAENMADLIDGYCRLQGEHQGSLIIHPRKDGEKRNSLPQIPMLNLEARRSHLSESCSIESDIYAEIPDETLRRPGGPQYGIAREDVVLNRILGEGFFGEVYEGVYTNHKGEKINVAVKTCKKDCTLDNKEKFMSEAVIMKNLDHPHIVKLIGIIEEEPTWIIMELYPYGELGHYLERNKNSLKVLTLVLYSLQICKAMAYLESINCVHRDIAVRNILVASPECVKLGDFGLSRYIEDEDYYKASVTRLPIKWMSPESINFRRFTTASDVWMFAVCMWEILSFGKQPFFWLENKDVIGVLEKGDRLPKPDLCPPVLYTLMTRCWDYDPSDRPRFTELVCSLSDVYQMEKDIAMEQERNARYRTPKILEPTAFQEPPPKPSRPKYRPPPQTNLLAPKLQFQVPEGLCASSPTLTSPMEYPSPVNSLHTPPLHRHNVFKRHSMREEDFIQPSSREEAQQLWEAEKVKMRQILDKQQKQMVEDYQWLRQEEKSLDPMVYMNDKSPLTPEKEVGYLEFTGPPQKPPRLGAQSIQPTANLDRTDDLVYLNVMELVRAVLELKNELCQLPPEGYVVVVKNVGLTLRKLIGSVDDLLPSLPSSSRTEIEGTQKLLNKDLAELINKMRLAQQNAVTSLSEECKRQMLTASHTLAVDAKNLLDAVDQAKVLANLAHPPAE
Chain of Cytochrome P450 2C19 (P33261 whole entry): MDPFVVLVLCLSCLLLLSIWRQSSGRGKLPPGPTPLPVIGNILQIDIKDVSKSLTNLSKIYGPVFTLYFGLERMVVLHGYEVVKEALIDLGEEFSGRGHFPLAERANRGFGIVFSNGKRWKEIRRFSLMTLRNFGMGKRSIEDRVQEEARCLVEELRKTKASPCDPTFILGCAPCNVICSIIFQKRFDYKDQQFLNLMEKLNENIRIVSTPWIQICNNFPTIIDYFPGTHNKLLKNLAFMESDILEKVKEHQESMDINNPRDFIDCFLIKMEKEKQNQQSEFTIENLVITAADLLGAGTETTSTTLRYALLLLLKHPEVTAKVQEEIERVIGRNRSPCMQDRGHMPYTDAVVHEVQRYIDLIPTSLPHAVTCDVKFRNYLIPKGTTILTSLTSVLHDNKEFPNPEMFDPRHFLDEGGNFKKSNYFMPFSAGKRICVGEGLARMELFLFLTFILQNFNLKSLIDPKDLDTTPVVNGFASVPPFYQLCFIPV

## CC1Cc2ccccc2N1Cc1nc(O)c2ccc(C(F)(F)F)cc2n1 (centres undefined)
Ephrin type-A receptor 4
  IC50: > 100 µM (not active)
Cytochrome P450 3A4 [1]
  AC50: 25.1 µM (inconclusive)
Cytochrome P450 2C19
  AC50: 0.0282 µM (inconclusive)

## CN(C)c1cc2c(c(N(C)C)c1)C(=O)c1ccccc1C2=O
Nonstructural protein 1
  IC50: 14.1 µM (active)
[2]
  IC50: 2.13 µM (active)

## CC(=O)OC(C)C[N+](C)(C)C (centres undefined) [METHACHOLINE CHLORIDE]
[3]
  IC50: > 40 µM (inactive)
Galanin receptor type 3
  IC50: 7.36 µM (active)
[4]
  IC50: > 40 µM (inactive)
Cells [5]
  EC50: > 30 µM (inactive)

## Cc1cccc2cc(/C=C3\N=C(c4ccccc4)OC3=O)c(N3CCOCC3)nc12
Ephrin type-A receptor 4
  IC50: 1.35 µM (active)
[6]
  EC50: 0.685 µM (active)

## Cc1ccc(Nc2nc(N/N=C/c3c[nH]c4ccccc34)nc(N3CCOCC3)n2)cc1
Vero
  CC50: 12.9 µM (active)
[7]
  CC50: 18.2 µM (active)
Melanocortin receptor 4
  IC50: > 64.6 µM (inactive)
Cells [8]
  IC50: 20.5 µM (active)
[9]
  IC50: > 64.6 µM (inactive)

## NS(=O)(=O)c1ccc(NC(=O)COC(=O)/C(=C/c2cccs2)c2cccs2)cc1
[10]
  IC50: > 111 µM (not active)
[11]
  IC50: 17.1 µM (not active)

## CCOC(=O)[C@@H](N)CS
[3]
  IC50: > 40 µM (inactive)
[4]
  IC50: 14.3 µM (inactive)

## Cc1nc(N2CCOCC2)c2nc(-c3ccccc3)n(C(C)CN(C)C)c2n1 (centres undefined)
Cytochrome P450 3A4 [12]
  AC50: 20 µM (inconclusive)

## CCc1nn(C(C)C(=O)NCCN2CCN(c3cccc(C)c3C)CC2)c(=O)c2cc3occc3n12 (centres undefined)
[13]
  EC50: > 50 µM (not active)

## Fc1cc2nccnc2cc1N1CCSCC1
[14]
  IC50: 50.2 µM (not active)

## Cn1cc(/C(Cc2ccccc2)=N\O)c2ccccc21
[13]
  EC50: > 50 µM (not active)

## CNC(=O)[C@@H]1C[C@H]1[C@@H](NC(=O)CNC(=O)OCc1ccccc1)c1ccccc1
Cytochrome P450 3A4 [12]
  AC50: 15.8 µM (inconclusive)

## CCOC(=O)CC1CCCCN1Cc1cn(C)nc1-c1ccc2c(c1)OCCO2 (centres undefined)
[15]
  IC50: > 109 µM (inactive)
[16]
  IC50: > 83.3 µM (inactive)

## Nc1c(C(=O)Nc2ccc3c(c2)OCCO3)nnn1Cc1cccc(Cl)c1
[10]
  IC50: > 111 µM (not active)
[11]
  IC50: 9.25 µM (active)
